Here are results for one compound from US20250354999A1, “BIOMARKERS OF LYSOSOMAL STORAGE DISEASE” (Genzyme Corporation, priority 2022, published 2025).

Common to all, as to assay type: in vivo, human
Assay [1] deals with lyso-GL3. The experiment in a line: lyso-GL3 level in plasma of Fabry patients on venglustat (ESI-LC-MS/MS). As to the method: (§1) Glycosphingolipids (lyso-GL1, GL3, and lyso-GL3) were measured by ESI-LC-MS/MS according to the method described in Murugesan et al., Am J Hematol. (2016) 91(11):1082-1089. In brief, 20 μL aliquots of plasma were added to 1 mL of chloroform:methanol (2:3) in an Eppendorf tube, mixed and then centrifuged. Supernatant was removed and extracted with chloroform (220 μL) and water (520 μL) by mixing and centrifugation. The upper phase was re-extracted with chloroform and added to the lower phase. The combined sample was dried, resuspended in 100 μL methanol:water (9:1) and injected into an LC-MS/MS system for tandem mass spectroscopic analysis. Separation of glycosphingolipids and other matrix components was achieved using UPLC under gradient conditions with two mobile phases: 0.1% formic acid in water; and 0.1% formic acid in acetonitrile. Mass spectrometry (MS) was performed in select ion monitoring mode, typically using the parent (M+H^+) ion transition (e.g. m/z 462.5>282.4 for lyso-GL1). Assays were calibrated using known glycosphingolipid standards (dimethylpsychosine, 13C6-labelled lyso-GL3 (GelbChem), and C17-GL3 (Matreya LLC, cat no. 1523) as internal standards for lyso-GL1, lyso-GL3, and GL3 respectively).
(§2) The ACT/LTS samples were taken from the Sanofi-Venglustat Phase II trial. This trial consisted only of male patients. […]

In assay [2] the test system is CD63. The experiment in a line: CD63 level in plasma of Fabry patients on treatment (Olink profiling; Sanofi-Venglustat Phase II ACT/LTS trial). As to the method: CD63 was measured by Olink® profiling, as described below, using the Olink® Target96 Neuro-Exploratory panel (Olink Proteomics AB, Uppsala, Sweden) according to the manufacturer's instructions.
Protein detection can be performed using Olink® (Olink Proteomics AB, Uppsala, Sweden) profiling in accordance with the manufacturer's recommended protocols (for exemplary methods, see, e.g., Assarsson et al., PLoS ONE (2014) 9(4):e95192; and Jabbari et al., Journal of Neurology, Neurosurgery & Psychiatry (2019) 90:768-773). The Proximity Extension Assay (PEA) technology used for the Olink® protocol has been well described (Assarsson et al., 2014, supra), and enables 92 analytes per panel to be analysed simultaneously, using 1 μL of each sample. In brief, pairs of oligonucleotide-labelled antibody probes bind to their targeted protein, and if the two probes are brought in close proximity the oligonucleotides will hybridize in a pair-wise manner. The addition of a DNA polymerase leads to a proximity-dependent DNA polymerization event, generating a unique PCR target sequence. The resulting DNA sequence can subsequently be detected and quantified using a microfluidic real-time PCR instrument (Biomark HD, Fluidigm). Data is then quality controlled and normalized using an internal extension control and an inter-plate control, to adjust for intra- and inter-run variation. The final assay read-out is presented in Normalized Protein expression (NPX) values, which is an arbitrary unit on a log 2-scale where a high value corresponds to a higher protein expression. All assay validation data (e.g., detection limits, intra- and inter-assay precision data, etc.), experimental protocols, and data processing are available on the manufacturer's website (www.olink.com).
The ACT/LTS samples were taken from the Sanofi-Venglustat Phase II trial. This trial consisted only of male patients. The Sanofi-Venglustat Phase II trial was a longitudinal study, and patient plasma was collected at 6 set intervals: Baseline (0 weeks), 12 weeks, 26 weeks, 52 weeks, 104.2 weeks, and 156.4 weeks. There are missing timepoints for some patients. During this trial, all patients were treated with venglustat (a substrate reduction therapy-SRT).
Cohort 1 is a collection of plasma samples provided by Dr. Gavin Oudit from the University of Alberta. Briefly, these plasma samples were from a mix of male and female patients with ages ranging from 25 to 68. They were non-longitudinal samples (e.g. 1 sample per patient), and the plasma samples were a mix of treated Fabry patients (enzyme replacement therapy-ERT), untreated Fabry patients, and healthy control subjects.
Cohort 2 is a collection of plasma samples provided by Dr. Michael Mauer from the University of Minnesota. […]

Assay [3] relates to CD63. The assay can be described thus: CD63 level in CSF of type 3 Gaucher disease patients on treatment (Olink Explore; LEAP trial). The conditions noted are these: GD3 patients, baseline, 26 weeks and 52 weeks on combination treatment of venglustat and imiglucerase. As to the method: For the measurement of protein levels in CSF, the following protocol was employed: Biomarker expression in CSF was measured using four Olink® Explore panels (Cardiometabolic, Inflammation, Neurology, and Oncology), as described, e.g., by Wik et al. (“Proximity Extension Assay in Combination with NextGeneration Sequencing for High-throughput Proteome-wide Analysis, 2021, Mol Cell Proteomics 20, 100168). Briefly, 10 μL of CSF samples and Olink controls were placed into a 384-well Sample Source Plate and then diluted 1:10, 1:100, 1:1000 and 1:100,000 in 384-well Sample Diluent Plates using Mosquito and Dragonfly liquid handlers (both from SPT Labtech). For immunoreaction, these diluted samples were mixed with the Olink® probes (DNA oligo-conjugated antibodies) in 384-well Incubation Plates using the Mosquito handler and incubated at 4° C. for 16-24 hours. The following day, reagent mixtures for the first PCR amplification step (PCR1 step) were added to the immunoreaction mixtures using the Dragonfly handler, and PCR1 reaction for the pre-amplification step was conducted using ProFlex PCR System (Applied Biosciences). […] The four libraries were analyzed by Next Generation Sequencing using NovaSeq 6000 (Illumina). […]

Assay [4] deals with GL3. The assay can be described thus: GL3 level in plasma of Fabry patients on venglustat (ESI-LC-MS/MS). The following applies: Fabry disease patients, venglustat clinical trial over time. As to the method: as §1, §2
[5] abbreviates: Fabry disease patients vs healthy controls, during the trial period.

Entries after “also recorded” stand apart in the source; their conditions may differ.

Regarding `CC(C)(NC(=O)O[C@@H]1CN2CCC1CC2)c1csc(-c2ccc(F)cc2)n1` [venglustat, (3S)-1-azabicyclo[2.2.2]octan-3-yl N-{2-[2-(4-fluorophenyl)-1,3-thiazol-4-yl]propan-2-yl}carbamate], the “return of lyso-GL3 to control levels” value in assay [1] (setting [5]) is given as “do not return to control levels during the trial period”. In assay [1] (Fabry disease patients, venglustat clinical trial over time), the “response of lyso-GL3 to treatment” value is given as “show a response to treatment”. Also, the “return of CD63 to control levels” value in assay [2] (setting [5]) was “do not return to control levels during the trial period”. Moreover, the “response of CD63 to treatment” value in assay [2] (Fabry disease patients, baseline to 156.4 weeks on treatment) is “decrease over a period of 30 months towards a healthy level; also recorded: show a response to treatment”. The “time at which CD63 response to treatment is observed” value in assay [2] (Fabry disease patients, venglustat treatment) was 12 weeks. For the same compound, the “first significant decrease in CD63 (estimated marginal mean, log 2)” value in assay [2] (Fabry disease patients, venglustat treatment, baseline to 156 weeks) is at most 26 week. Moreover, the “change of CD63 levels in CSF on treatment” value in assay [3] is “consistently led to a decrease in CD63 levels”. Also, the “response of GL3 to treatment” value in assay [4] is reported as “show a response to treatment”.
